Assay [1] has as its target MAPK14 (human) (UniProt Q16539). Description: Inhibition of p38 MAP Kinase in Whole Blood.
The target is the same in assay [2]. Description: Inhibition of TNF-alpha Release in THP-1 Cell. The note with it: thp1.
Assay [3] deals with MAPK14 (mouse). The experiment in a line: Inhibition of MAPK14 Kinase Activity.

The structures appear in SMILES notation.

MAPK14 (human), sequence (Q16539 whole entry, looked up): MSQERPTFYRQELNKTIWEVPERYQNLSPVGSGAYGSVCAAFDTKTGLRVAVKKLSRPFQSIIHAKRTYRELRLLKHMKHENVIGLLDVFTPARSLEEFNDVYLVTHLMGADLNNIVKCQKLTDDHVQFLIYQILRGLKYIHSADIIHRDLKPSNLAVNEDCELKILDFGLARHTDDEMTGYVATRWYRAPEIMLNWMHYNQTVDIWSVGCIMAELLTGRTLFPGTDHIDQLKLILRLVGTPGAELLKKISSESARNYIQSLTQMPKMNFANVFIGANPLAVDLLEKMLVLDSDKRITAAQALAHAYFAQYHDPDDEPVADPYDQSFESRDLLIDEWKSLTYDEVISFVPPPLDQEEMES

In the case of `CC(C)N1CC2CC1CN2c1cc2c(nc1Sc1ccc(F)cc1F)CNC(=O)N2c1c(Cl)cccc1Cl` (centres undefined), the IC50 in assay [1] came out at 65 nM; in assay [2] it was 1.6 nM. In the same order, the values of `O=C1NCc2nc(Sc3ccc(F)cc3F)c(N3CCOCC3)cc2N1c1c(Cl)cccc1Cl` are 400 nM and 22 nM.

In the case of `O=C1NCc2nc(Sc3ccc(F)cc3F)c(N3CCCCC3)cc2N1c1c(Cl)cccc1Cl`, the IC50 in assay [2] was 500 nM.

On to `O=C1NCc2nc(Sc3ccc(F)cc3F)c(N3CC4CC3CN4)cc2N1c1c(Cl)cccc1Cl` (centres undefined), for which the IC50 in assay [1] came to 11.2 nM; in assay [2], 1.5 nM.

In the case of `O=C1NCc2nc(Sc3ccc(F)cc3F)c(N3CCN(CCN4CCCC4)CC3)cc2N1c1c(Cl)cccc1Cl`, the 50% inhibitory concentration (IC50) in assay [1] stood at 9 nM; in assay [2], 2 nM. For `O=c1ncc2nc(Sc3ccc(F)cc3F)ccc2n1-c1c(Cl)cccc1Cl`, the IC50 in assay [3] was 600 nM. With `O=C1NCc2nc(Sc3ccc(F)cc3F)c(N3CC4CC3CN4CC3CC3)cc2N1c1c(Cl)cccc1Cl` (centres undefined), the half-inhibitory concentration (IC50) in assay [1] is 51 nM; in assay [2] it was 1.2 nM. In the same order, the values of `O=C1NCc2nc(Sc3ccc(F)cc3F)c(N3CC4CC3CN4C3CC3)cc2N1c1c(Cl)cccc1Cl` (centres undefined) are 220 nM and 8.2 nM. For `O=C1NCc2nc(Sc3ccc(F)cc3F)c(NC3CCNCC3)cc2N1c1c(Cl)cccc1Cl`, the IC50 in assay [1] turned out to be 17 nM; in assay [2], 9 nM. `CC1CN(c2cc3c(nc2Sc2ccc(F)cc2F)CNC(=O)N3c2c(Cl)cccc2Cl)CC(C)O1` (centres undefined): the IC50 in assay [1] was determined as 72 nM; in assay [2], 25 nM. With `O=C1NCc2nc(Sc3ccc(F)cc3F)c(OC3CCNCC3)cc2N1c1c(Cl)cccc1Cl`, in assay [1], the IC50 was found to be 63 nM.

Consider `O=C1NCc2nc(Sc3ccc(F)cc3F)c(N3CC4CCC3C4)cc2N1c1c(Cl)cccc1Cl` (centres undefined), for which the IC50 in assay [2] was determined as 500 nM. In other words, the sub-micromolar range. For `CN(C)CCN1CCN(c2cc3c(nc2Sc2ccc(F)cc2F)CNC(=O)N3c2c(Cl)cccc2Cl)CC1`, the IC50 was determined as 14 nM in assay [1] and 0.7 nM in assay [2]. With `CC(C)N1CCN(c2cc3c(nc2Sc2ccc(F)cc2F)CNC(=O)N3c2c(Cl)cccc2Cl)CC1`, in assay [1], the half-inhibitory concentration (IC50) came to 170 nM. For the compound `O=C1NCc2nc(Sc3ccc(F)cc3F)c(N3CCNCC3)cc2N1c1c(Cl)cccc1Cl`, the IC50 came out at 20 nM in assay [1] and 5 nM in assay [2]. Consider `CCN1CC2CC1CN2c1cc2c(nc1Sc1ccc(F)cc1F)CNC(=O)N2c1c(Cl)cccc1Cl` (centres undefined), for which the concentration for half-maximal inhibition (IC50) came out at 42 nM in assay [1] and 1.3 nM in assay [2]. In the same order, the values of `O=C1NCc2nc(Sc3ccc(F)cc3F)c(N3CCC(CCN4CCCC4)CC3)cc2N1c1c(Cl)cccc1Cl` are 940 nM and 7.3 nM.

As usually defined, the IC50 is the concentration that inhibits the measured activity by half. A higher IC50 goes with lower potency.

The values are drawn from the Kinase Knowledgebase extract (Sharma et al. 2016).
